Data taken from PubChem BioAssay (NCI).
Several values for one entry are separate records, joined by “and”; a condition that tells them apart may be missing. Identical values can stand only once.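 Five concentrations, 48 hours, 96-well plates. Here, GI50 denotes the concentration required for 50% inhibition of growth. TGI marks complete inhibition of growth.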 Where a SMILES comes first, the peptide text is derived from it. [ ]: non-standard residue; d: D form.

Columns and labels:
Assay in all cases: DTP human tumour cell line panel, 48 h
[1] = test system: MALME-3M melanoma
[2] = test system: M14 melanoma
[3] = test system: SNB-19 CNS
[4] = test system: NCI/ADR-RES ovarian
[5] = test system: RXF 393 renal
[6] = test system: PC-3 prostate
[7] = test system: DU-145 prostate
[8] = test system: MCF7 breast
[9] = test system: HS 578T breast
[10] = test system: SK-MEL-5 melanoma

| SMILES | TGI [1] | TGI [2] | TGI [3] | TGI [4] | TGI [5] | TGI [6] | TGI [7] | TGI [8] | TGI [9] | TGI [10] | GI50 [3] | GI50 [5] |
| --- | --- | --- | --- | --- | --- | --- | --- | --- | --- | --- | --- | --- |
| C=C1c2c(n(S(=O)(=O)c3ccccc3)c3ccccc23)[C@@]2(C(=O)OC)CC3C=CC2N1C3 | > 100 µM | > 100 µM | > 100 µM | > 100 µM | > 100 µM | > 100 µM | > 100 µM | > 100 µM |  |  |  |  |
| COc1cc2nc(-c3cccs3)nc(N3CCN(c4ccccc4)CC3)c2cc1OC | > 100 µM | > 100 µM | > 100 µM | > 100 µM |  | > 100 µM | > 100 µM | > 100 µM | > 100 µM | > 100 µM |  |  |
| O=C1Sc2ccccc2C(=O)N2CCSC12 (stereo unspecified) | > 100 µM | > 100 µM | > 100 µM |  | > 100 µM |  |  |  |  | > 100 µM |  |  |
| CC(C)C[C@H](NC(=O)[C@H](CC(C)C)NC(=O)[C@@H](Cc1c[nH]c2ccccc12)NC(=O)[C@H](Cc1ccccc1)NC(=O)[C@@H](Cc1c[nH]c2ccccc12)NC(=O)[C@H](CCC(N)=O)NC(=O)[C@@H](CCC(N)=O)NC(=O)[C@@H]1CCCN1C(=O)[C@@H](CCCCN)NC(=O)[C@H]1CCCN1C(=O)[C@H](N)CCCN=C(N)N)C(N)=O (H-[dR][dP][dK]P[dQ]Q[dW]F[dW]LL-NH2) | > 31.6 µM |  | > 100 µM | > 100 µM | > 100 µM |  |  | > 100 µM |  | > 100 µM |  |  |
| CC1CN(c2cc3c(cc2F)c(=O)c(C(=O)O)cn3-c2ccc(N3CCN(C)CC3)cn2)CC(C)N1 (stereo unspecified) | > 100 µM | > 100 µM | > 100 µM | > 100 µM | > 100 µM | > 100 µM | > 100 µM | > 100 µM | > 100 µM |  |  |  |
| COC(=O)/C1=C/C=C\C[C@@]2(C)CC(c3ccoc3)OC(=O)[C@@H]2CC[C@H]1C (stereo partly specified) | > 25 µM | > 25 µM | > 25 µM | > 25 µM | > 25 µM | > 25 µM |  | > 25 µM | > 25 µM | > 25 µM |  |  |
| Cc1ccc(/C=c2\c(=O)[nH]c3nc4ccccc4c(=O)n23)cc1 | > 100 µM | > 100 µM | > 100 µM | > 100 µM | 98.7 µM | > 100 µM | > 100 µM | > 100 µM | > 100 µM |  |  |  |
| NS(=O)(=O)c1nnc(NS(=O)(=O)c2cccc3cccnc23)s1 |  | > 100 µM | > 100 µM | > 100 µM | > 100 µM |  | > 100 µM | > 100 µM | > 100 µM | > 100 µM |  |  |
| O=C1CCC2(O)c3ccccc3C2Cc2ccccc21 (stereo unspecified) | > 100 µM |  | > 100 µM |  | > 100 µM |  |  |  |  |  |  |  |
| O=C1C(c2ccccc2)=C(c2ccccc2)C1(Cl)Cl | 7.56 µM | 5.9 µM | 32.9 µM | > 27 µM |  | 14.3 µM | 24.5 µM | 9.92 µM | > 28.8 µM | 8.03 µM |  |  |
| COc1cc(C2c3cccc4cccc(c34)C3CCC(=O)N32)cc(OC)c1O (stereo unspecified) |  | > 50 µM | > 50 µM | > 50 µM | > 50 µM | > 50 µM | > 50 µM | > 50 µM |  |  |  |  |
| CCOC(=O)c1nc2ccccc2nc1Nc1ccc(C(=O)OC)s1 | > 100 µM | > 100 µM | > 100 µM | > 100 µM |  | > 100 µM | > 100 µM | > 100 µM | > 100 µM | > 100 µM |  |  |
| CC1(C)C2CC3C(C)(C2)C31c1cc(Cl)ccc1N (stereo unspecified) | 21.3 µM | 24.8 µM | 33.5 µM | 29.5 µM | 22.9 µM | 27 µM | 27 µM | 26.7 µM |  | 27.1 µM |  |  |
| [N-]=[N+]=Nc1cc(=O)[nH]c2ccccc12 | > 100 µM | > 100 µM | > 100 µM | > 100 µM | > 100 µM | > 100 µM |  | > 100 µM | > 100 µM | > 100 µM |  |  |
| CN(C)C(=O)N1N[C@H](c2ccccc2)[C@@H]1c1ccccc1 | > 100 µM | > 100 µM | > 100 µM | > 100 µM | > 100 µM | > 100 µM | > 100 µM | > 100 µM |  | > 100 µM |  |  |
| Cc1nc(N)c(N2CCN(S(=O)(=O)N(Cc3ccccc3)Cc3ccccc3)CC2)c(=O)[nH]1 | 56.6 µM | > 100 µM | 74.7 µM | > 100 µM |  | 46.5 µM | 52.7 µM | > 100 µM | 69.8 µM |  |  |  |
| COC(=O)/C=C1\C(CO[Si](C)(C)C(C)(C)C)OC(n2cc(C)c(=O)n(C)c2=O)C1O[Si](C)(C)C(C)(C)C (stereo unspecified) | > 100 µM | > 100 µM | > 100 µM | > 100 µM |  | > 100 µM | > 100 µM | > 100 µM | > 100 µM | > 100 µM |  |  |
| Cc1cc2nc3c(C#N)c(C)c(CCCl)c(Cl)n3c2cc1C | 9.28 µM | 6.16 µM | 36.3 µM | 21.5 µM |  | 12.4 µM | 13.6 µM | 8.64 µM | > 29.6 µM | 8.82 µM |  |  |
| N#Cc1ccc(-c2ccc(Cl)cc2)n(C2OC(CO)C(O)C(O)C2O)c1=S (stereo unspecified) | > 100 µM | > 100 µM | > 100 µM |  | > 100 µM and 51 µM | > 100 µM | > 100 µM | > 100 µM | > 100 µM | > 100 µM | > 100 µM and 26.4 µM | > 100 µM and 18.7 µM |
| CC1(C)CC(=O)c2c(N)n[nH]c2C1 | > 100 µM | > 100 µM | > 100 µM | > 100 µM | > 100 µM | > 100 µM | > 100 µM | > 100 µM |  | > 100 µM |  |  |
| CC(C)OC1=C(CC2(C)OCCO2)C(=O)C12OCCO2 |  | > 100 µM | > 100 µM | > 100 µM |  | > 100 µM | > 100 µM | > 100 µM | > 100 µM | > 100 µM |  |  |
| Oc1ccc(-c2nc3cc(C(F)(F)F)ccc3s2)cc1 | 26.6 µM | 29.2 µM | 31.4 µM | 35.5 µM | 33.2 µM | 27.9 µM | 30 µM | 23.3 µM |  | 30 µM |  |  |
